Assay results: patent US20220323443A1, “COMBINATION THERAPY FOR CANCER TREATMENT” (TAKEDA PHARMACEUTICAL COMPANY LIMITED, priority 2019, published 2022)

Experiments:
HCT116 cancer cells = experiment: In vitro combination study with Compound 1, Cell Titer-Glo (ATP) cell viability, 72 h; format: cell-based; conditions: DNA damaging agent combined with Compound 1; 72 h;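 also: combination call from 10×10 dose matrices in duplicate, graded by synergy, with percent activity per well relative to DMSO vehicle controls on the same plate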
A549 cancer cells = experiment: as above; format: cell-based; conditions: DNA damaging agent combined with Compound 1; 72 h;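 also: Ten-by-ten dose matrices of the two agents in duplicate, compounds added 16 h post-plating, activity relative to DMSO vehicle wells, call reflects synergy evaluation from luminescence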
COLO205 cancer cells = experiment: as above; format: cell-based, human; conditions: DNA damaging agent combined with Compound 1; 72 h;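 also: Ten-by-ten dose matrices of both agents in duplicate plus single-agent dilutions, luminescent ATP read-out, percent activity per well relative to DMSO vehicle wells, synergy call from these matrices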
Procedure: Each combination pair was evaluated in an individual 384-well plate which contained variable doses of both compounds as single agents, as well as two, ten-by-ten matrices (in duplicate) that contained mixtures of the two test compounds. In brief, compounds were added to the cell test plates 16 hours after cell plating and then assessed for viability 72 hours later. Continuous cultures of tumor cells were maintained under standard cell culturing conditions (i.e. in a humidified chamber set at 37° C., containing atmosphere 5% carbon dioxide). […] Seventy-two hours after compound addition, ATP levels were measured to assess cell viability. Plating densities were chosen to ensure optimal linear growth over the 72 hour period.
Compound dilution and compound delivery to the assay plates were done on HighRes Robotic System (HighRes Biosolutions, Woburn, Mass., USA) with Echo™ Liquid Handler (Labcyte, Sunnyvale, Calif., USA). […] Next, these were used for compound transfer into cell assay plates. All wells were back-filled to give a constant percentage of DMSO.
The final DMSO concentration was held constant in all wells across the plate and was maintained at less than 0.5%. […] Cells treated with vehicle (DMSO) in two rows, or single compound serial dilutions in one plate columns/row served as the untreated control and single compound controls, respectively.
Compound activity in A549, COLO205, H460, HCT116, SW48, SW620 cancer cell lines was assessed using Cell Titer-Glo® (Promega [Madison, Wis., USA]). After 72 hours incubation, the plates were treated as per package insert protocol for the Promega Luminescence ATP Detection Systems. Briefly, 25 μL of cell lysis/substrate solution (provided in kit form) was added to each well and the plate was incubated at room temperature for 10 minutes. Luminescence was measured using a PHERAstar multi-label counter (BMG Labtech [Ortenberg, Germany]) or LEADseeker (GE Healthcare Life Sciences [Piscataway, N.J., USA]).
Numerical luminescence values were analyzed to generate EC50 curves and evaluate synergy. Raw Data reader files were uploaded along with automation workfiles that defined the plate and well contents. Percent activities were calculated for each well versus plate controls.
Each plate representing a single drug combination was analyzed separately. First, the viability measurements were normalized by scaling the data so that the median of the negative controls was 0 and the median of the positive controls was 100.
For the combination analysis, a response surface model was used to describe the relationship between the normalized viability and the drug concentrations. The data were fit to the model by minimizing the residual sum of squares. Based on the fitted response surface, plots of constant viability, called isobolograms, were produced.
The Combination Index and Nonlinear Blending were used as measures of drug synergy. To calculate Combination Index the 50% isobologram (which is the dose contour that has 50% viability) was used. […] A standard procedure was created to produce a call in order to characterize the viability effects for each combination (synergy, additivity, subadditivity, or antagonism). If the Combination Index existed then these measures were used to make the call.

CALU6 (Lung) = experiment: In vitro combination study for selected compounds, additional cell lines; format: cell-based; conditions: drug combined with Compound 1
Procedure: (§1) In vitro anti-proliferative effects of selected compounds were tested in additional cell lines, including ovarian cancer (SKOV3) and pancreatic cancer (MIA-PACA-2) cell lines.

[1] = test system: ovarian cancer (SKOV3) cell line; experiment: as above; format: cell-based; conditions: drug combined with Compound 1
Procedure: as §1

H-1650 (Lung) = experiment: as above; format: cell-based; conditions: drug combined with Compound 1
Procedure: as §1

[2] = test system: PHTX-249Pa human primary pancreatic xenografts; experiment: In vivo combination study, Patient Derived Xenograft; design: species or system mouse
Procedure: (§2) To investigate in vivo antitumor activity of Compound 1 in combination with other agents, tests using Cell Derived Xenograft (CDX), Patient Derived Xenograft (PDX) and Syngeneic mouse tumor isograft model were conducted. Cells or Patient Derived Tumors were inoculated by one method of the following two methods (Method A and B) as shown Table 7.
(§3) Method A; Cells were maintained in either immune deficient nude mice or immune competent mice by subcutaneous inoculation of tumor cells at various concentrations into respected mice. Method B: Patient Derived Tumor s were maintained in nude mice by subcutaneous inoculation of tumor pieces (approx. 2×2×2 mm) into nude mice. Mice with tumor size of approximately 50 mm^3 (e.g., 40-75 mm^3) for syngeneic mouse studies or 200 mm^3 (e.g., 110-270 mm^3) for xenograft studies were randomly assigned to dose groups on the day (Day 0) before start date of dosing.
(§4) Compound 1 (crystalline form I) was suspended in 0.5 w/v % methylcellulose and administered orally to mice. Antibodies which administered in the experiment were described in Table 8.
(§5) Tumor size was measured by caliper and tumor volume was estimated using the equation V=(LW^2)/2, where L and W are tumor length and width, respectively and reported in cubic millimeters.
(§6) These values were compared across treatment groups to assess whether the differences in the trends over time were statistically significant. To compare pairs of treatment groups, the following mixed-effects linear regression model was fit to the data using the maximum likelihood method:
(§7) For synergy analyses, the observed differences in the log tumor values were used to calculate AUC values for each animal. In instances when an animal in a treatment group was removed from the study, the last observed tumor value was carried forward through all subsequent time points. The AUC for the control, or vehicle, group was calculated using the predicted values from the pairwise models described above. We defined a measure of synergy as follows:
(§8) where Ak and Bk are the k^th animal in the individual treatment groups and ABk is the k^th animal in combination treatment group. AUCcd is the model-predicted AUC for the control group and was treated as a constant with no variability. The standard error of the synergy score was calculated as the square root of the sum of squared standard errors across groups A, B, and AB. The degrees of freedom were estimated using the Welch-Satterthwaite equation. A hypothesis test was performed to determine if the synergy score differed from 0. P values were calculated by dividing the synergy score by its standard error and tested against a t-distribution (two-tailed) with the above-calculated degrees of freedom.
(§9) The effect was classified into four different categories. It was considered synergistic if the synergy score was less than 0 and additive if the synergy score wasn't statistically different from 0. If the synergy score was greater than zero, but the mean AUC for the combination was lower than the lowest mean AUC among the two single agent treatments, then the combination was sub-additive. If the synergy score was greater than zero, and the mean AUC for the combination was greater than the mean AUC for at least one of the single agent treatments, then the combination was antagonistic.

PHTXM-97Pa (Pancreatic) = experiment: as above; design: species or system mouse
Procedure: as §2, §3, §4, §5, §6, §7, §8, §9

Panc02 (Pancreatic) = experiment: In vivo combination study, syngeneic mouse tumor isograft model
Procedure: as §2, §3, §4, §5, §6, §7, §8, §9

SW620 cancer cells = experiment: In vitro combination study with Compound 1, Cell Titer-Glo (ATP) cell viability, 72 h; format: cell-based; conditions: DNA damaging agent combined with Compound 1; 72 h;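 also: Ten-by-ten dose matrices of both drugs in 384-well plates, luminescent ATP read-out, synergy evaluated against single-agent and DMSO vehicle controls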
DU-145 (Prostate) = experiment: In vivo combination study, Cell Derived Xenograft; design: species or system mouse; conditions: DU-145 (165 mm^3); Compound 1 60 mg/kg once daily Day 1-21; drug 40 mg/kg intraperitoneally Days 1,4,8,11,15,18
Procedure: as §2
Method A; Cells were maintained in either immune deficient nude mice or immune competent mice by subcutaneous inoculation of tumor cells at various concentrations into respected mice. Method B: Patient Derived Tumor s were maintained in nude mice by subcutaneous inoculation of tumor pieces (approx. 2×2×2 mm) into nude mice. […]
Tumor size was measured by caliper and tumor volume was estimated using the equation V=(LW^2)/2, where L and W are tumor length and width, respectively and reported in cubic millimeters. […]
For synergy analyses, the observed differences in the log tumor values were used to calculate AUC values for each animal. […] The AUC for the control, or vehicle, group was calculated using the predicted values from the pairwise models described above. […]
where Ak and Bk are the k^th animal in the individual treatment groups and ABk is the k^th animal in combination treatment group. […] The standard error of the synergy score was calculated as the square root of the sum of squared standard errors across groups A, B, and AB. […]

H460 cancer cells = experiment: In vitro combination study with Compound 1, Cell Titer-Glo (ATP) cell viability, 72 h; format: cell-based; conditions: DNA damaging agent combined with Compound 1; 72 h;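 also: Ten-by-ten dose matrices of both drugs alongside single-agent dilutions, luminescence read 72 hours after compound addition, percent activity per well versus vehicle (DMSO) plate controls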

With Nc1ccn([C@@H]2O[C@H](CO)[C@@H](O)C2(F)F)c(=O)n1 [Gemcitabine] the “Call, anti-proliferative effect of combination with Compound 1, HCT116” value (HCT116 cancer cells) was “Additivity (0.7 to 1.3)”, the “Call, anti-proliferative effect of combination with Compound 1, A549” value (A549 cancer cells) was “Antagonism (>2)” and the “Call, anti-proliferative effect of combination with Compound 1, COLO205” value (COLO205 cancer cells) was “Additivity (0.7 to 1.3)”. The “In vitro combination effect with Compound 1, Lung CALU6” value (CALU6 (Lung)) was “Additive”, the “In vitro combination effect with Compound 1, Ovary SKOV3” value [1] was “Additive” and the “In vitro combination effect with Compound 1, Lung H-1650” value (H-1650 (Lung)) was “Antagonism”. For the same compound, the “Result (combination with Compound 1, tumor growth)” value (“Result” for short) ([2]; PHTX-249Pa (165 mm^3), Compound 1 40 mg/kg once daily Day 1-21, drug 20 mg/kg intraperitoneally Days 1,4,8,11,15,18) was “Additive”, the “Result” value ([2]; PHTX-249Pa (165 mm^3), Compound 1 40 mg/kg once daily Day 1-21, drug 40 mg/kg intraperitoneally Days 1,4,8,11,15,18) was “subadditive” and the “Result” value ([2]; PHTX-249Pa (165 mm^3), Compound 1 60 mg/kg once daily Day 1-21, drug 20 mg/kg intraperitoneally Days 1,4,8,11,15,18) was “Additive”. For the same compound, the “Result” value ([2]; PHTX-249Pa (165 mm^3), Compound 1 60 mg/kg once daily Day 1-21, drug 40 mg/kg intraperitoneally Days 1,4,8,11,15,18) was “subadditive”, the “Result” value ([2]; PHTX-249Pa (180 mm^3) FIG. 6A, Compound 1 20 mg/kg once daily Day 1-21, drug 5 mg/kg intraperitoneally Days 1,4,8,11,15,18) was “Synergistic” and the “Result” value ([2]; PHTX-249Pa (180 mm^3) FIG. 6A, Compound 1 20 mg/kg once daily Day 1-21, drug 20 mg/kg intraperitoneally Days 1,4,8,11,15,18) was “Additive”. For the same compound, the “Result” value ([2]; PHTX-249Pa (180 mm^3) FIG. 6A, Compound 1 40 mg/kg once daily Day 1-21, drug 5 mg/kg intraperitoneally Days 1,4,8,11,15,18) was “Additive”, the “Result” value ([2]; PHTX-249Pa (180 mm^3) FIG. 6A, Compound 1 40 mg/kg once daily Day 1-21, drug 20 mg/kg intraperitoneally Days 1,4,8,11,15,18) was “subadditive” and the antitumor activity ([2]; combined with Compound 1, PHTX-249 Pa human primary pancreatic xenografts, FIG. 6A) was “strong antitumor activity compared to either single treatment alone”. For the same compound, the “Result” value (PHTXM-97Pa (Pancreatic); PHTXM-97Pa (180 mm^3), Compound 1 20 mg/kg once daily Day 1-21, drug 5 mg/kg intraperitoneally Days 1,4,8,11,15,18) was “subadditive”, the “Result” value (PHTXM-97Pa (Pancreatic); PHTXM-97Pa (180 mm^3), Compound 1 20 mg/kg once daily Day 1-21, drug 20 mg/kg intraperitoneally Days 1,4,8,11,15,18) was “Additive” and the “Result” value (PHTXM-97Pa (Pancreatic); PHTXM-97Pa (180 mm^3), Compound 1 40 mg/kg once daily Day 1-21, drug 5 mg/kg intraperitoneally Days 1,4,8,11,15,18) was “subadditive”. The “Result” value (PHTXM-97Pa (Pancreatic); PHTXM-97Pa (180 mm^3), Compound 1 40 mg/kg once daily Day 1-21, drug 20 mg/kg intraperitoneally Days 1,4,8,11,15,18) was “subadditive”, the “Result” value (PHTXM-97Pa (Pancreatic); PHTXM-97Pa (210 mm^3), Compound 1 40 mg/kg once daily Day 1-21, drug 20 mg/kg intraperitoneally Days 1,4,8,11,15,18) was “subadditive” and the “Result” value (PHTXM-97Pa (Pancreatic); PHTXM-97Pa (210 mm^3), Compound 1 40 mg/kg once daily Day 1-21, drug 40 mg/kg intraperitoneally Days 1,4,8,11,15,18) was “subadditive”. The “Result” value (PHTXM-97Pa (Pancreatic); PHTXM-97Pa (210 mm^3), Compound 1 60 mg/kg once daily Day 1-21, drug 20 mg/kg intraperitoneally Days 1,4,8,11,15,18) was “subadditive”, the “Result” value (PHTXM-97Pa (Pancreatic); PHTXM-97Pa (210 mm^3), Compound 1 60 mg/kg once daily Day 1-21, drug 40 mg/kg intraperitoneally Days 1,4,8,11,15,18) was “subadditive” and the “Result” value (Panc02 (Pancreatic); Panc02 (75 mm^3), Compound 1 60 mg/kg orally QD day 0-20, drug 5 mg/kg intraperitoneally QD on Day 0,3,6,9,12) was “Additive”. For the same compound, the CR per group (Panc02 (Pancreatic); note to Table 9, by note order: Gemcitabine study in Panc02 (75 mm^3)) was 0 CR in Gemcitabine group and 0 CR in Compound 1 group, and 0 CR in Compound 1/Gemcitabine combo group, the “Call, anti-proliferative effect of combination with Compound 1, SW620” value (SW620 cancer cells) was “Additivity (0.7 to 1.3)” and the “Result” value (DU-145 (Prostate)) was “Additive”. For the same compound, the “Call, anti-proliferative effect of combination with Compound 1, H460” value (H460 cancer cells) was “Subadditivity (1.3 to 2)”.
